Source: PubChem BioAssay AID248 (DTP/NCI, 2004)
“And” between values parts separate entries of the source, which are not always exact repeats. Equal values may be shown once. Inconclusive results and toxic doses are left out. No stated cut-off is given here; in the data, active means T/C of 150% or more; inactive means T/C below 125%.

Test system: L1210 leukemia ip in BDF1 mice, survival T/C
Experiment: NCI In Vivo Anticancer Drug Screen. Data for tumor model L1210 Leukemia (intraperitoneal) in B6D2F1 (BDF1) mice
Details: endpoint: mean survival time, higher = longer survival
Summary of the method: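 Transplantable tumor model; survival measured in treated vs vehicle control mice. Value = treated/control.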

[1] = dose: 100.0 mg/kg/injection, schedule: Q04DX002 (ip), vehicle: Klucel (hydroxypropylcellulose) (HPC)
[2] = dose: 200.0 mg/kg/injection, schedule: Q04DX002 (ip), vehicle: Klucel (hydroxypropylcellulose) (HPC)
[3] = dose: 400.0 mg/kg/injection, schedule: Q04DX002 (ip), vehicle: Klucel (hydroxypropylcellulose) (HPC)
[4] = dose: 100.0 mg/kg/injection, schedule: Q01DX001 (ip), vehicle: carboxymethylcellulose (CMC)
[5] = dose: 200.0 mg/kg/injection, schedule: Q01DX001 (ip), vehicle: carboxymethylcellulose (CMC)
[6] = dose: 50.0 mg/kg/injection, schedule: Q01DX001 (ip), vehicle: saline
[7] = dose: 100.0 mg/kg/injection, schedule: Q04DX003 (ip), vehicle: saline
[8] = dose: 100.0 mg/kg/injection, schedule: Q01DX009 (ip), vehicle: Klucel (hydroxypropylcellulose) (HPC)
[9] = dose: 100.0 mg/kg/injection, schedule: Q04DX003 (ip), vehicle: Klucel (hydroxypropylcellulose) (HPC)
[10] = dose: 200.0 mg/kg/injection, schedule: Q04DX003 (ip), vehicle: Klucel (hydroxypropylcellulose) (HPC)
[11] = dose: 400.0 mg/kg/injection, schedule: Q01DX009 (ip), vehicle: Klucel (hydroxypropylcellulose) (HPC)
[12] = dose: 400.0 mg/kg/injection, schedule: Q04DX003 (ip), vehicle: Klucel (hydroxypropylcellulose) (HPC)
[13] = dose: 100.0 mg/kg/injection, schedule: Q01DX009 (ip), vehicle: saline with Tween-80
[14] = dose: 100.0 mg/kg/injection, schedule: Q04DX003 (ip), vehicle: saline with Tween-80
[15] = dose: 200.0 mg/kg/injection, schedule: Q01DX009 (ip), vehicle: saline with Tween-80
[16] = dose: 200.0 mg/kg/injection, schedule: Q04DX003 (ip), vehicle: saline with Tween-80
[17] = dose: 400.0 mg/kg/injection, schedule: Q01DX009 (ip), vehicle: saline with Tween-80
[18] = dose: 400.0 mg/kg/injection, schedule: Q04DX003 (ip), vehicle: saline with Tween-80
[19] = dose: 100.0 mg/kg/injection, schedule: Q01DX001 (ip), vehicle: saline
[20] = dose: 200.0 mg/kg/injection, schedule: Q01DX001 (ip), vehicle: saline
[21] = dose: 400.0 mg/kg/injection, schedule: Q01DX001 (ip), vehicle: saline
[22] = dose: 100.0 mg/kg/injection, schedule: Q01DX001 (ip), vehicle: Klucel (hydroxypropylcellulose) (HPC)
[23] = dose: 200.0 mg/kg/injection, schedule: Q01DX001 (ip), vehicle: Klucel (hydroxypropylcellulose) (HPC)
[24] = dose: 400.0 mg/kg/injection, schedule: Q01DX001 (ip), vehicle: Klucel (hydroxypropylcellulose) (HPC)

Measured: T/C

OC1CSC1.[Cl][Hg][Cl]
inactive: dose: 5.0 mg/kg/injection, schedule: Q01DX001 (ip), vehicle: carboxymethylcellulose (CMC) 94 % of control | dose: 10.0 mg/kg/injection, schedule: Q01DX001 (ip), vehicle: carboxymethylcellulose (CMC) 100 % of control | dose: 20.0 mg/kg/injection, schedule: Q01DX001 (ip), vehicle: carboxymethylcellulose (CMC) 91 % of control

O=C(O)/C=C/C(=O)Nc1cccc(C(F)(F)F)c1
inactive: [1] 100 % of control | [2] 100 % of control | [3] 96 % of control

CC(C)C(=O)Oc1ccc(-c2ccccc2)cc1
inactive: [1] 93 % of control | [2] 100 % of control | [3] 100 % of control

CC(C)(C)C1COP(=O)(Oc2ccccc2)OC1 (stereo not drawn)
inactive: [4] 91 % of control | [5] 94 % of control

CC(C)NC(C)Cc1ccccc1 (stereo not drawn)
inactive: dose: 25.0 mg/kg/injection, schedule: Q01DX001 (ip), vehicle: saline 93 % of control | [6] 91 % of control

NCc1ccccc1[N+](=O)[O-]
inactive: [7] 104 % of control | dose: 200.0 mg/kg/injection, schedule: Q04DX003 (ip), vehicle: saline 104 % of control | dose: 400.0 mg/kg/injection, schedule: Q04DX003 (ip), vehicle: saline 102 % of control

CC(C)(c1ccccc1)C(C)(C)c1ccccc1
inactive: [8] 91 % of control | [9] 92 % of control | [10] 96 % of control | [11] 89 % of control | [12] 96 % of control

CCOC(=O)c1cnc(SC)nc1NCc1ccco1
inactive: [13] 95 % of control | [14] 100 % of control | [15] 97 % of control | [16] 97 % of control | [17] 106 % of control | [18] 92 % of control

CC(Cc1ccccc1)N(C)C(=O)CN1C(=O)c2ccccc2C1=O (stereo not drawn)
inactive: [6] 103 % of control | [19] 117 % of control | [20] 109 % of control | [21] 91 % of control

CC(OC(=O)c1ccccc1C(=O)O)c1ccccc1 (stereo not drawn)
inactive: [4] 93 % of control | [5] 96 % of control | dose: 400.0 mg/kg/injection, schedule: Q01DX001 (ip), vehicle: carboxymethylcellulose (CMC) 96 % of control

Cc1cccc(N=P(c2ccccc2)(c2ccccc2)c2ccccc2)c1
inactive: dose: 50.0 mg/kg/injection, schedule: Q01DX009 (ip), vehicle: Klucel (hydroxypropylcellulose) (HPC) 96 % of control | [8] 88 % of control | [9] 95 % of control | [10] 96 % of control

O=[N+]([O-])c1ccc2c(c1)COCO2
inactive: [14] 95 % of control | [16] 95 % of control | [18] 97 % of control

CC(=O)OCCn1c([N+](=O)[O-])cnc1/C=[N+](\[O-])C1CCCCC1
inactive: [1] 107 % of control | [2] 100 % of control | [3] 103 % of control

Nc1cc(=O)[nH]c(=S)n1-c1ccc(Br)cc1
inactive: [6] 93 % of control | [19] 102 % of control | [20] 93 % of control | [21] 108 % of control

COc1cc([N+](=O)[O-])c2nc(C(=O)O)ccc2c1
inactive: [6] 116 % of control | [19] 106 % of control | [20] 112 % of control

CCOC(=O)C1CC1(C)Br (stereo not drawn)
inactive: dose: 3.13 mg/kg/injection, schedule: Q04DX002 (ip), vehicle: saline with Tween-80 97 % of control | dose: 6.25 mg/kg/injection, schedule: Q04DX002 (ip), vehicle: saline with Tween-80 87 % of control | dose: 25.0 mg/kg/injection, schedule: Q04DX002 (ip), vehicle: saline with Tween-80 87 % of control | dose: 100.0 mg/kg/injection, schedule: Q04DX002 (ip), vehicle: saline with Tween-80 90 % of control

Nc1cc(Nc2ccc(Cl)[nH]c2=S)nc(N)n1
inactive: [22] 90 % of control | [23] 93 % of control | [24] 92 % of control

NC(=S)c1cccc(S(N)(=O)=O)c1
inactive: [22] 100 % of control | [23] 103 % of control | [24] 103 % of control

COc1cc(/C=C2\SC(=O)NC2=O)ccc1O
inactive: dose: 12.5 mg/kg/injection, schedule: Q01DX009 (ip), vehicle: saline with Tween-80 106 % of control | dose: 25.0 mg/kg/injection, schedule: Q01DX009 (ip), vehicle: saline with Tween-80 101 % of control | dose: 150.0 mg/kg/injection, schedule: Q01DX009 (ip), vehicle: saline with Tween-80 101 % of control

CC(C)[P+](c1ccccc1)(c1ccccc1)c1ccccc1
inactive: dose: 5.0 mg/kg/injection, schedule: Q01DX001 (ip), vehicle: saline 108 % of control | dose: 10.0 mg/kg/injection, schedule: Q01DX001 (ip), vehicle: saline 111 % of control | dose: 16.25 mg/kg/injection, schedule: Q01DX009 (ip), vehicle: saline 100 % of control | dose: 20.0 mg/kg/injection, schedule: Q01DX001 (ip), vehicle: saline 118 % of control | dose: 25.0 mg/kg/injection, schedule: Q04DX003 (ip), vehicle: saline 113 % of control | dose: 40.0 mg/kg/injection, schedule: Q01DX001 (ip), vehicle: saline 113 % of control | dose: 50.0 mg/kg/injection, schedule: Q04DX003 (ip), vehicle: saline 103 % of control | dose: 65.0 mg/kg/injection, schedule: Q04DX003 (ip), vehicle: saline 107 % of control and 116 % of control | [19] 108 % of control | [7] 118 % of control | dose: 150.0 mg/kg/injection, schedule: Q04DX003 (ip), vehicle: saline 90 % of control

Cc1ccc(N=C(c2ccccc2)c2ccc([N+](=O)[O-])cc2)cc1
inactive: [8] 98 % of control | [9] 105 % of control | dose: 200.0 mg/kg/injection, schedule: Q01DX009 (ip), vehicle: Klucel (hydroxypropylcellulose) (HPC) 101 % of control | [10] 93 % of control | [11] 103 % of control | [12] 102 % of control

CC(C#N)CC12CCCCC1CC/C(=C\c1ccccc1)C2=O (stereo not drawn)
inactive: [9] 102 % of control | [10] 96 % of control | [12] 96 % of control

NC(=O)C1OC(n2cnc3c(N)ncnc32)C(O)C1O (stereo not drawn)
inactive: dose: 0.09 mg/kg/injection, schedule: Q01DX009 (ip), vehicle: saline 101 % of control | dose: 0.19 mg/kg/injection, schedule: Q01DX005 (ip), vehicle: saline 114 % of control | dose: 0.19 mg/kg/injection, schedule: Q01DX009 (ip), vehicle: saline 100 % of control | dose: 0.39 mg/kg/injection, schedule: Q01DX009 (ip), vehicle: saline 107 % of control | dose: 0.78 mg/kg/injection, schedule: Q01DX009 (ip), vehicle: saline 103 % of control | dose: 1.56 mg/kg/injection, schedule: Q01DX009 (ip), vehicle: saline 114 % of control

CC(O)CCc1ccccc1 (stereo not drawn)
inactive: [13] 100 % of control | [15] 89 % of control | [17] 88 % of control
